The text below walks through data of ChEMBL document CHEMBL3853328, “A molecular dynamics simulation investigation of the relative stability of the cyclic peptide octreotide and its deprotonated and its (CF3)-Trp substituted analogs in different solvents” (Bioorg Med Chem, 2016).

The Kd is the free concentration of one partner at which half of the binding sites on the other are occupied at equilibrium, for simple one-to-one binding.

Each structure is given as a SMILES string.

The experiment addresses Somatostatin receptor type 2 (Homo sapiens, UniProt P30874). The experiment can be described thus: Binding affinity to human SST2 receptor.

Sequence of Somatostatin receptor type 2 (P30874 whole entry): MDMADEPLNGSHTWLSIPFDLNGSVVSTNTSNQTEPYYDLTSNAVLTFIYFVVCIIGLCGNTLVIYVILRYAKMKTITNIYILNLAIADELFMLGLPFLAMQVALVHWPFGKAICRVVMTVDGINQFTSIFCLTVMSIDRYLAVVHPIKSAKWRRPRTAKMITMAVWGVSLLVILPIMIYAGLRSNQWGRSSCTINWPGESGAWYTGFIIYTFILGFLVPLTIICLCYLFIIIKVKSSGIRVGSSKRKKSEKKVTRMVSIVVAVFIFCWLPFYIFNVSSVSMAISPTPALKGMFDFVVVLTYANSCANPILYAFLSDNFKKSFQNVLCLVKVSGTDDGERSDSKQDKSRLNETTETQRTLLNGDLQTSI

For `C[C@@H](O)[C@H](CO)NC(=O)[C@@H]1CSSC[C@H](NC(=O)[C@H](N)Cc2ccccc2)C(=O)N[C@@H](Cc2ccccc2)C(=O)N[C@H](Cc2c(C(F)(F)F)[nH]c3ccccc23)C(=O)N[C@@H](CCCCN)C(=O)N[C@@H]([C@@H](C)O)C(=O)N1`, the dissociation constant Kd turned out to be 15.5 nM.
